From ChEMBL document CHEMBL1201862, “PubChem BioAssay data set” (2004)
Values joined by “and” are separate entries in the source; they are usually repeats but may differ in a detail not shown here. Identical values can stand only once.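 Each compound was tested at five concentrations against cells in 96-well plates for 48 hours. GI50: concentration for 50% inhibition of growth.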 Active and inactive are the calls of the source. Cut-off read from the data, not from the text of the source: active = GI50 up to about 1.1 µM and inactive = higher.

Key:
Assay in all cases: NCI anticancer screen, dose series, 48 h
U-251 = test system: U-251
DU-145 = test system: DU-145
SN12C = test system: SN12C
SF-268 = test system: SF-268
K562 = test system: K562
HOP-92 = test system: HOP-92
SK-MEL-2 = test system: SK-MEL-2
SR = test system: SR
CCRF-CEM = test system: CCRF-CEM
UACC-62 = test system: UACC-62
KM12 = test system: KM12
SNB-75 = test system: SNB-75
HL-60 = test system: HL-60
HCT-15 = test system: HCT-15
COLO 205 = test system: COLO 205
Hs-578T = test system: Hs-578T
SK-MEL-5 = test system: SK-MEL-5
MOLT-4 = test system: MOLT-4
UO-31 = test system: UO-31
OVCAR-4 = test system: OVCAR-4
SK-OV-3 = test system: SK-OV-3
HT-29 = test system: HT-29
SW-620 = test system: SW-620
EKVX = test system: EKVX
NCI-H460 = test system: NCI-H460
RXF 393 = test system: RXF 393
SF-539 = test system: SF-539
A549 = test system: A549
SF-295 = test system: SF-295
UACC-257 = test system: UACC-257
OVCAR-8 = test system: OVCAR-8
A498 = test system: A498
LOX IMVI = test system: LOX IMVI
MDA-MB-231 = test system: MDA-MB-231
CAKI-1 = test system: CAKI-1
MCF7 = test system: MCF7
PC-3 = test system: PC-3
IGROV-1 = test system: IGROV-1
Malme-3M = test system: Malme-3M
NCI-H522 = test system: NCI-H522
ACHN = test system: ACHN
OVCAR-5 = test system: OVCAR-5
RPMI-8226 = test system: RPMI-8226
TK-10 = test system: TK-10
MDA-MB-435 = test system: MDA-MB-435
NCI-H23 = test system: NCI-H23
T47D = test system: T47D
SK-MEL-28 = test system: SK-MEL-28
HCC 2998 = test system: HCC 2998
NCI/ADR-RES = test system: NCI/ADR-RES
786-0 = test system: 786-0
HCT-116 = test system: HCT-116
MDA-N = test system: MDA-N
M14 = test system: M14
OVCAR-3 = test system: OVCAR-3
HOP-62 = test system: HOP-62
NCI-H226 = test system: NCI-H226

CN(Cc1cnc2nc(N)nc(N)c2n1)c1ccc(C(=O)NC(CCC(=O)O)C(=O)O)cc1C(F)(F)F (centres undefined)
GI50 (U-251): < 10 nM (active) | GI50 (DU-145): < 10 nM (active) | GI50 (SN12C): < 0.01 µM (active) | GI50 (SF-268): < 0.01 µM (active) | GI50 (K562): < 0.01 µM (active) | GI50 (HOP-92): > 100 µM (inactive) | GI50 (SK-MEL-2): > 100 µM (inactive) | GI50 (SR): < 0.01 µM (active) | GI50 (CCRF-CEM): < 0.01 µM (active) | GI50 (UACC-62): < 0.01 µM (active) | GI50 (KM12): < 0.01 µM (active) | GI50 (SNB-75): > 100 µM (inactive) | GI50 (HL-60): < 0.01 µM (active) | GI50 (HCT-15): < 0.01 µM | GI50 (COLO 205): < 0.01 µM (active) | GI50 (Hs-578T): > 72.9 µM (inactive) | GI50 (SK-MEL-5): < 0.01 µM (active) | GI50 (MOLT-4): < 0.01 µM (active) | GI50 (UO-31): < 10 nM (active) | GI50 (OVCAR-4): > 100 µM (inactive) | GI50 (SK-OV-3): > 100 µM (inactive) | GI50 (HT-29): < 0.01 µM (active) | GI50 (SW-620): < 0.01 µM (active) | GI50 (EKVX): > 27 µM (inactive) | GI50 (NCI-H460): < 0.01 µM (active) | GI50 (RXF 393): > 100 µM (inactive) | GI50 (SF-539): < 10 nM (active) | GI50 (A549): < 10 nM (active) | GI50 (SF-295): < 0.01 µM (active) | GI50 (UACC-257): 25.8 µM (inactive) | GI50 (OVCAR-8): < 0.01 µM (active) | GI50 (A498): < 10 nM (active) | GI50 (LOX IMVI): < 0.01 µM (active) | GI50 (MDA-MB-231): > 23.1 µM (inactive) | GI50 (CAKI-1): < 0.01 µM (active) | GI50 (MCF7): < 0.01 µM (active) | GI50 (PC-3): < 10 nM (active) | GI50 (IGROV-1): < 0.01 µM (active) | GI50 (Malme-3M): > 100 µM (inactive) | GI50 (NCI-H522): < 0.01 µM (active) | GI50 (ACHN): < 0.01 µM (active) | GI50 (OVCAR-5): < 0.01 µM (active) | GI50 (RPMI-8226): < 0.01 µM (active) | GI50 (TK-10): > 78.3 µM (inactive) | GI50 (MDA-MB-435): < 0.01 µM (active) | GI50 (NCI-H23): < 0.01 µM (active) | GI50 (T47D): > 100 µM (inactive) | GI50 (SK-MEL-28): > 100 µM (inactive) | GI50 (HCC 2998): < 0.01 µM (active) | GI50 (NCI/ADR-RES): < 0.01 µM (active)

CCOC(=O)/C=C/C(=O)O/C=C/[N+](=O)[O-]
GI50 (U-251): > 100000 nM (inactive) | GI50 (DU-145): > 100000 nM (inactive) | GI50 (SN12C): > 100 µM (inactive) | GI50 (SF-268): > 100 µM (inactive) | GI50 (HOP-92): > 100 µM (inactive) | GI50 (786-0): > 100 µM (inactive) | GI50 (SR): > 100 µM (inactive) | GI50 (CCRF-CEM): 4.54 µM (inactive) | GI50 (UACC-62): > 100 µM (inactive) | GI50 (KM12): > 100 µM (inactive) | GI50 (SNB-75): > 100 µM (inactive) | GI50 (HL-60): > 100 µM (inactive) | GI50 (HCT-15): > 100 µM | GI50 (COLO 205): > 100 µM (inactive) | GI50 (Hs-578T): > 100 µM (inactive) | GI50 (SK-MEL-5): > 100 µM (inactive) | GI50 (MOLT-4): > 100 µM (inactive) | GI50 (UO-31): > 100000 nM (inactive) | GI50 (HCT-116): > 100 µM (inactive) | GI50 (SK-OV-3): > 100 µM (inactive) | GI50 (MDA-N): > 100 µM (inactive) | GI50 (HT-29): > 100 µM (inactive) | GI50 (SW-620): > 100 µM (inactive) | GI50 (M14): > 100 µM (inactive) | GI50 (EKVX): > 100 µM (inactive) | GI50 (NCI-H460): > 100 µM (inactive) | GI50 (RXF 393): > 100 µM (inactive) | GI50 (SF-539): > 100000 nM (inactive) | GI50 (SF-295): > 100 µM (inactive) | GI50 (UACC-257): > 100 µM (inactive) | GI50 (OVCAR-8): > 100 µM (inactive) | GI50 (A498): > 100000 nM (inactive) | GI50 (LOX IMVI): > 100 µM (inactive) | GI50 (MDA-MB-231): > 100 µM (inactive) | GI50 (CAKI-1): 33.3 µM (inactive) | GI50 (MCF7): > 100 µM (inactive) | GI50 (OVCAR-3): > 100 µM (inactive) | GI50 (HOP-62): > 100 µM (inactive) | GI50 (IGROV-1): > 100 µM (inactive) | GI50 (NCI-H522): > 100 µM (inactive) | GI50 (ACHN): > 100 µM (inactive) | GI50 (OVCAR-5): > 100 µM (inactive) | GI50 (RPMI-8226): > 100 µM (inactive) | GI50 (TK-10): > 100 µM (inactive) | GI50 (NCI-H226): > 100 µM (inactive) | GI50 (MDA-MB-435): > 100 µM (inactive) | GI50 (NCI-H23): > 100 µM (inactive) | GI50 (T47D): > 100 µM (inactive) | GI50 (HCC 2998): > 100 µM (inactive) | GI50 (NCI/ADR-RES): > 100 µM (inactive)

COC(=O)/C=C/c1cc(OC)c2c(c1)C(C(=O)OC)C(c1ccc(O)c(OC)c1)O2 (centres undefined)
GI50 (U-251): 3.4 µM (inactive) and 3.29 µM (inactive) and 3.13 µM (inactive) | GI50 (DU-145): 3.72 µM (inactive) and 3.18 µM (inactive) and 4.32 µM (inactive) | GI50 (SF-268): 7.87 µM (inactive) and 8.04 µM (inactive) and 5.83 µM (inactive) | GI50 (786-0): 3.44 µM (inactive) and 2.21 µM (inactive) and 4.33 µM (inactive) | GI50 (KM12): 2.83 µM (inactive) and 3.34 µM (inactive) and 2.13 µM (inactive) | GI50 (SNB-75): 1.95 µM (inactive) and 1.51 µM (inactive) and 1.94 µM (inactive) | GI50 (Hs-578T): 2.69 µM (inactive) and 2.38 µM (inactive) and 1.67 µM (inactive) | GI50 (SK-MEL-5): 2.27 µM (inactive) and 2.57 µM (inactive) and 1.4 µM (inactive) | GI50 (UO-31): 4.98 µM (inactive) and 4.86 µM (inactive) and 9.53 µM (inactive) | GI50 (SK-OV-3): 5.71 µM (inactive) and 5.64 µM (inactive) and 3.26 µM (inactive) | GI50 (M14): 4.05 µM (inactive) and 5.74 µM (inactive) and 3.53 µM (inactive) | GI50 (RXF 393): 1.88 µM (inactive) and 2.98 µM (inactive) and 2.43 µM (inactive) | GI50 (SF-539): 2.69 µM (inactive) and 2.17 µM (inactive) and 1.82 µM (inactive) | GI50 (A549): 6.25 µM (inactive) and 5.69 µM (inactive) and 6 µM (inactive) | GI50 (SF-295): 2.2 µM (inactive) and 2.36 µM (inactive) and 1.22 µM (inactive) | GI50 (A498): 8.95 µM (inactive) and 15.2 µM (inactive) and 8.2 µM (inactive) | GI50 (MDA-MB-231): 2.49 µM (inactive) and 4.51 µM (inactive) and 3.15 µM (inactive) | GI50 (PC-3): 3.13 µM (inactive) and 2.84 µM (inactive) and 2.79 µM (inactive) | GI50 (Malme-3M): 4.58 µM (inactive) and 4.39 µM (inactive) and 2.74 µM (inactive) | GI50 (NCI-H23): 5.08 µM (inactive) and 3.93 µM (inactive) and 5.18 µM (inactive) | GI50 (T47D): 3.87 µM (inactive) and 7.14 µM (inactive) and 3.73 µM (inactive)

CC1OC(c2ccccc2)=CC(OCc2ccccc2)[C@H]1OCc1ccccc1 (some centres undefined)
GI50 (SN12C): > 10 µM (inactive) | GI50 (SF-268): > 10 µM (inactive) | GI50 (786-0): > 10 µM (inactive) | GI50 (SR): > 10 µM (inactive) | GI50 (CCRF-CEM): > 10 µM (inactive) | GI50 (UACC-62): > 10 µM (inactive) | GI50 (KM12): > 10 µM (inactive) | GI50 (SNB-75): > 10 µM (inactive) | GI50 (HCT-15): > 10 µM | GI50 (SK-MEL-5): > 10 µM (inactive) | GI50 (MOLT-4): > 10 µM (inactive) | GI50 (SK-OV-3): > 10 µM (inactive) | GI50 (MDA-N): > 10 µM (inactive) | GI50 (SW-620): > 10 µM (inactive) | GI50 (M14): > 10 µM (inactive) | GI50 (EKVX): > 10 µM (inactive) | GI50 (RXF 393): > 10 µM (inactive) | GI50 (A549): > 10000 nM (inactive) | GI50 (SF-295): > 10 µM (inactive) | GI50 (OVCAR-8): > 10 µM (inactive) | GI50 (MDA-MB-231): > 10 µM (inactive) | GI50 (CAKI-1): > 10 µM (inactive) | GI50 (MCF7): > 10 µM (inactive) | GI50 (HOP-62): > 10 µM (inactive) | GI50 (PC-3): > 10000 nM (inactive) | GI50 (IGROV-1): > 10 µM (inactive) | GI50 (Malme-3M): > 10 µM (inactive) | GI50 (RPMI-8226): > 10 µM (inactive) | GI50 (TK-10): > 10 µM (inactive) | GI50 (NCI-H23): > 10 µM (inactive) | GI50 (T47D): > 10 µM (inactive) | GI50 (SK-MEL-28): > 10 µM (inactive) | GI50 (HCC 2998): > 10 µM (inactive)
